Laboratory results reported in publication PMC5306062, “Pharmacology and toxicology of the novel investigational agent Cantrixil (TRX-E-002-1)” (Cancer Chemotherapy and Pharmacology, 2016).
Read-outs that look alike come from different tables or passages of the source.

How the values were obtained:
[1] = Rat pharmacokinetics after single intraperitoneal injection of 100 mg/kg; type: in vivo, Sprague–Dawley rats
Protocol: The pharmacokinetics of TRX-E-002-1 was evaluated in male female Sprague–Dawley rats following a single intraperitoneal injection of 100 mg/kg TRX-E-002-1 in 20% SBECD vehicle. Absorption was rapid, with C max mean plasma concentrations reached 0.25/1 h after dosing in female/male rats. […] Mean plasma levels decreased to below the limit of quantification by 24 h (not shown). The AUC0−∞ value was 29,537 and 44,702 ng h/mL in female and male rats, respectively (Table 2). High tissue levels were observed 0.5–6 h after dosing, with levels higher than the plasma concentration in pancreas, ovaries, large intestine, skin, kidneys, liver, stomach and adrenal glands (not shown). Treatment of plasma and tissue samples with glucuronidase indicated the presence of low levels of a glucuronide conjugate of TRX-E-002-1 (not shown). Other metabolic pathways have not yet been investigated. […] Parent drug was excreted in the urine and faeces, and high levels of the glucuronide metabolite were found in the faeces.
Tissue concentrations of total drug (parent + glucuronide) were also similar to those in plasma except in liver, where they were 2–3 times higher.

[2] = Dog 14-day pilot toxicity study with toxicokinetics, intraperitoneal; conditions: dog M + F, Day 1
Protocol: For the dog 14-day pilot study, male and female beagle dogs were dosed once daily with intraperitoneal injections of vehicle (1:2 dilutions of 20% SBECD in 0.9% saline) or Cantrixil (10, 30 or 100 mg/kg) for 14 days. The doses were administered via an implanted catheter.

[3] = Second dog pharmacokinetic study, 10 mg/kg intraperitoneal, four dogs; type: in vivo, beagle dogs; conditions: dog M + F, 10 mg/kg i.p., second study
Protocol: In beagle dogs, plasma concentrations of unconjugated TRX-E-002-1 at early time points (1–4 h’ post-dose) were 76–93% of the total levels (parent + glucuronide). At 8 h, the plasma concentrations of the glucuronide metabolites were similar to those of parent drug. By 24 h’ post-dose, the concentrations of TRX-E-002-1-glucuronide in plasma and gastrointestinal tissues (except colon) were 2–12 times higher than those of the parent drug. The increased levels of TRX-E-0021-glucuronide relative to those of parent drug at 24 h post-dose may reflect slower elimination of the glucuronide metabolites.

[4] = system: disseminated ovarian cancer model; assay: Disseminated ovarian cancer model, intraperitoneal dosing; type: in vivo, mice
Text: In vivo, TRX-E-002-1, formulated in 20% SBECD, was active in a disseminated ovarian cancer model and a recurrent ovarian cancer model in which tumour recurrence is investigated following initial treatment of the OCSC2-inoculated mice with paclitaxel. In both models, TRX-E-002-1 inhibited tumour growth following once daily intraperitoneal administration.
The combination of TRX-E-002-1 and cisplatin was investigated in the murine model of disseminated ovarian cancer.

[5] = system: micronucleated polychromatic erythrocytes (PCEs) in bone marrow; assay: Bone marrow micronucleus test; type: in vivo, ARC(S) Swiss mice; conditions: positive control group
Protocol: The assays were performed in compliance with GLP regulations.
The bone marrow micronucleus test was the in vivo part of the ICH genotoxicity testing battery and was conducted in ARC(S) Swiss mice. Eight groups of mice (10/sex/group) were given an intraperitoneal injection of vehicle (20% w/v SBECD) or Cantrixil at 50, 200 or 400 mg/kg and were killed 24 or 48 h later. Dimethyl-1,2 benzanthracene was used as the positive control. After preparation of the bone marrow cells, the number of micronucleated polychromatic erythrocytes (PCEs) was determined in 4000 PCEs per animal, and the proportion of PCEs in the total erythrocyte population in bone marrow was calculated from the examination of at least 500 erythrocytes as an index of bone marrow toxicity. […] The proportion of PCEs in the total erythrocyte population was decreased in both sexes at the 200 and 400 mg/kg doses at both kill times. TRX-E-002-1 is therefore considered clastogenic in this system at the described concentrations in vivo [the equivalent 200/400 mg/kg dose in a […] is 16.2 mg/kg (600 mg/m^2)/32.4 mg/kg (1200 mg/m^2) in a 60-kg human].

c-Jun N-terminal kinase = system: c-Jun N-terminal kinase; set-up: method as in PMID 27196760; conditions: cited from earlier work
[6] = system: mouse lymphoma L5178Y cells; assay: In vitro mammalian cell mutation assay, thymidine kinase locus
Protocol: Genotoxicity testing of TRX-E-002-1 was performed in an ICH-compliant test battery (see ICH Guideline S2A), comprising an in vitro bacterial reverse mutation test, an in vitro mammalian cell mutation assay and an in vivo rodent bone marrow micronucleus assay. The assays were performed in compliance with GLP regulations.
The in vitro mammalian cell mutation assay utilised the forward mutation system at the thymidine kinase locus of the mouse lymphoma L5178Y cells using a microtitre cloning technique. TRX-E-002-1 was tested in three experimental conditions: 3-h incubation at 37 °C with and without metabolic activation system (Aroclor-induced rat liver S9 mix), and a 24-h incubation without metabolic activation (i.e. continuous treatment).

[7] = female rats, 100 mg/kg i.p., plasma
[8] = 10 μM SP600125, OCSC2 cells, Western blot

With `COc1cc(C2COc3c(ccc(O)c3C)C2c2ccc(O)cc2)cc(OC)c1O` (racemic) [TRX-E-002] the AUClast [1, 7] was 29,396 ng h/mL, the C max [1, 7] was 8355 ng/mL and the elimination half-life ([1]; rats, interspecies comparison) was “about 2.5 h”. For the same compound, the “AUC0−∞” value ([2]; 10 mg/kg i.p.) was 4395 ng·h/mL, the AUClast ([2]; 10 mg/kg i.p.) was 4390 ng·h/mL and the C max ([2]; 10 mg/kg i.p.) was 626 ng/mL. The T max ([2]; 10 mg/kg i.p.) was 2.0 h, the “T ½” value ([2]; 10 mg/kg i.p.) was 2.6 h and the “AUC0−∞” value ([2]; 30 mg/kg i.p.) was 11,300 ng h/mL. The AUClast ([2]; 30 mg/kg i.p.) was 8770 ng·h/mL, the T max ([2]; 30 mg/kg i.p.) was 2.0 h and the “T ½” value ([2]; 30 mg/kg i.p.) was 2.5 h. For the same compound, the “AUC0−∞” value ([2]; 100 mg/kg i.p.) was 58,550 ng h/mL, the AUClast ([2]; 100 mg/kg i.p.) was 58,500 ng h/mL and the C max ([2]; 100 mg/kg i.p.) was 6795 ng/mL. For the same compound, the T max ([2]; 100 mg/kg i.p.) was 1.25 h, the “T ½” value ([2]; 100 mg/kg i.p.) was 2.2 h and the “AUC0−∞” value [3] was 1633 ng·h/mL. The AUClast [3] was 1630 ng·h/mL, the C max [3] was 425 ng/mL and the T max [3] was 2 h. For the same compound, the “T ½” value [3] was 2.6 h and the tumour growth ([4]; 100 mg/kg i.p. once daily in 20% SBECD for 13–14 days) was “significantly inhibited”.
For `Cc1c2ccccc2c(C)c2c1ccc1ccccc12` [Dimethyl-1,2 benzanthracene, reference compound], the “frequency of micronucleated PCEs” value [5] was “statistically significant increase” and the “proportion of PCEs” value [5] was “reduction”.
For `Oc1c2ccccc2c2c3c(cccc13)N=N2` [SP600125], the “TRX-E-002-1-induced phosphorylation of c-Jun” value (c-Jun N-terminal kinase; [8]) is given as “inhibited”, the “phosphorylation of ERK” value (c-Jun N-terminal kinase; [8]) is given as “without affecting” and the “effect on anti-tumour activity of 0.245 μM TRX-E-002-1” value (c-Jun N-terminal kinase; OCSC2 cells) is given as “blocked”.
For `N.N.[Cl][Pt][Cl]` [cisplatin, reference compound], the “tumour growth during the 16-day treatment period” value ([4]; TRX-E-002-1 100 mg/kg once daily, cisplatin 5 mg/kg once weekly, or both) was “significantly inhibited” and the “tumour growth during the 5-week post-treatment period” value ([4]; after 16-day treatment, TRX-E-002-1 100 mg/kg once daily, cisplatin 5 mg/kg once weekly, or both) was “decreased”.
In the case of `O=P1(N(CCCl)CCCl)NCCCO1` (centres unmarked) [cyclophosphamide], the mutant frequency ([6]; positive control, presence of S9) is reported as “expected increases”.
For `COS(C)(=O)=O` [methyl methanesulfonate], the mutant frequency [6] was “expected increases”.
